Data on nine compounds can be found in patent US20220204476A1, “RNA VIRUS INHIBITOR COMPOUNDS AND USES THEREOF” (The Governors of the University of Alberta, priority 2020, published 2022).

Each structure is given as a SMILES string.

For one assay, the system named is SARS-CoV-2. As to the kind of experiment: SARS-CoV-2 in vitro plaque reduction assay in Vero E6 cells. It counts as cell-based. Particulars: Severe acute respiratory syndrome coronavirus 2, Vero C1008, MOI 0.0001 pfu/cell, plaques counted after 48 h, >5 μM = did not reduce plaque numbers by half at 10 μM, read-out: SARS-CoV-2 Antiviral EC50.
Another assay has as its target SARS-CoV-2 3CLP (Severe acute respiratory syndrome coronavirus 2, UniProt P0DTD1). As to the kind of experiment: SARS-CoV-2 3CLP inhibition, FRET-based cleavage assay. It counts as biochemical. The following applies: 80 nM SARS-CoV-2 3CLP, 100 μM substrate, 37° C., 10 min incubation, pH 7.8; read-out: 3CL Protease IC50.

For orientation: EC50 means the concentration needed to bring the measured effect to its halfway point. The IC50 is the midpoint of a concentration-inhibition curve. On to `COc1cccc2[nH]c(C(=O)N[C@@H](CC(C)C)C(=O)N[C@@H](C[C@@H]3CCCNC3=O)C(=O)COC(=O)c3sc(C)nc3C(F)(F)F)cc12` [Compound 21, (3S)-3-{[N-(4-methoxy-1H-indole-2-carbonyl)-L-leucyl]amino}-2-oxo-4-[(3S)-2-oxopiperidin-3-yl]butyl 2-methyl-4-(trifluoromethyl)-1,3-thiazole-5-carboxylate], for which the EC50 in the assay with SARS-CoV-2 was > 5000 nM. Also, on SARS-CoV-2 3CLP, the IC50 was 18 nM.
In the same order, the values of `COc1cccc2[nH]c(C(=O)N[C@@H](CC(C)C)C(=O)N[C@@H](C[C@@H]3CCCNC3=O)C(=O)COC(=O)c3cnc(C)cc3C)cc12` [Compound 22, (3S)-3-{[N-(4-methoxy-1H-indole-2-carbonyl)-L-leucyl]amino}-2-oxo-4-[(3S)-2-oxopiperidin-3-yl]butyl 4,6-dimethylpyridine-3-carboxylate] are > 5000 nM and 17 nM.
In the same order, the values of `COc1cccc2[nH]c(C(=O)N[C@@H](CC(C)C)C(=O)N[C@@H](C[C@@H]3CCNC3=O)C(=O)COC(=O)c3c(C(F)(F)F)cccc3C(F)(F)F)cc12` [Compound 25, (3S)-3-{[N-(4-methoxy-1H-indole-2-carbonyl)-L-leucyl]amino}-2-oxo-4-[(3S)-2-oxopyrrolidin-3-yl]butyl 2,6-bis(trifluoromethyl)benzoate] are < 250 nM and 18 nM.
In the same order, the values of `COc1cccc2[nH]c(C(=O)N[C@@H](CC(C)C)C(=O)N[C@@H](C[C@@H]3CCNC3=O)C(=O)COC(=O)C(C)(C)C(F)(F)F)cc12` [Compound 27, (3S)-3-{[N-(4-methoxy-1H-indole-2-carbonyl)-L-leucyl]amino}-2-oxo-4-[(3S)-2-oxopyrrolidin-3-yl]butyl 3,3,3-trifluoro-2,2-dimethylpropanoate] are > 5000 nM and 29 nM.
Regarding `COc1cccc2[nH]c(C(=O)N[C@@H](CC(C)C)C(=O)N[C@@H](C[C@@H]3CCCNC3=O)C(=O)COc3ccc(S(C)(=O)=O)cc3)cc12` [Compound 30, N-[(2S)-1-({(2S)-4-[4-(methanesulfonyl)phenoxy]-3-oxo-1-[(3S)-2-oxopiperidin-3-yl]butan-2-yl}amino)-4-methyl-1-oxopentan-2-yl]-4-methoxy-1H-indole-2-carboxamide], the half-maximal effective concentration (EC50) in the assay with SARS-CoV-2 is > 5000 nM. The IC50 on SARS-CoV-2 3CLP is 53 nM.
In the same order, the values of `CC(C)C[C@H](NC(=O)OCc1ccccc1)C(=O)N[C@H](C#N)C[C@@H]1CCCNC1=O` [Compound 66, N^2-[(benzyloxy)carbonyl]-N-{(1S)-1-cyano-2-[(3S)-2-oxopiperidin-3-yl]ethyl}-L-leucinamide] are > 5000 nM and 340 nM.
In the same order, the values of `CC(C)C[C@H](NC(=O)OCC1c2ccccc2-c2ccccc21)C(=O)N[C@H](C#N)C[C@@H]1CCCNC1=O` [Compound 67, N-{(1S)-1-cyano-2-[(3S)-2-oxopiperidin-3-yl]ethyl}-N^2-{[(9H-fluoren-9-yl)methoxy]carbonyl}-L-leucinamide] are 4100 nM and 170 nM.
In the same order, the values of `COc1cc(Cl)cc2[nH]c(C(=O)N[C@@H](CC(C)C)C(=O)N[C@H](C#N)C[C@@H]3CCCNC3=O)cc12` [Compound 68, 6-chloro-N-[(2S)-1-({(1S)-1-cyano-2-[(3S)-2-oxopiperidin-3-yl]ethyl}amino)-4-methyl-1-oxopentan-2-yl]-4-methoxy-1H-indole-2-carboxamide] are 2200 nM and 9.1 nM.
For `CC(C)C[C@H](NC(=O)c1nc(-c2ccccc2)c[nH]1)C(=O)N[C@H](C#N)C[C@@H]1CCCNC1=O` [Compound 75, N-{(1S)-1-cyano-2-[(3S)-2-oxopiperidin-3-yl]ethyl}-N^2-(4-phenyl-1H-imidazole-2-carbonyl)-L-leucinamide], in the assay on SARS-CoV-2, the EC50 was > 5000 nM. Moreover, the IC50 at SARS-CoV-2 3CLP amounted to 160 nM.
